From the supplement of paper PMC10307832

Assays:
Experiment in all cases: relative viability (nuclei count vs DMSO), 5 days (fraction); higher = more cells survive
[1] = compound: C/C(=N\NC(=S)N1CCC1)/C2=CC=CC=N2 + Nc1nc2[nH]cc(CCc3ccc(C(=O)N[C@@H](CCC(=O)O)C(=O)O)cc3)c2c(=O)[nH]1 [Pemetrexed] (partner 0.2 µM)
Outline: (§1)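 Medians of duplicate plates are given as relative viability. That measure is the nuclei count in treated wells divided by the count in vehicle wells. Counts were taken on 4× images of lung cancer cell lines in 1536-well plates, 5 days after pin-tool dosing the day after seeding with one drug alone or a fixed anchor-drug dose plus five library-drug doses (not always all listed) in √10 steps.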

[2] = compound: C/C(=N\NC(=S)N1CCC1)/C2=CC=CC=N2 + NC(=O)Nc1cc(-c2cccc(F)c2)sc1C(=O)N[C@H]1CCCNC1 [AZD7762] (partner 0.2 µM)
Outline: as §1

[3] = compound: C/C(=N\NC(=S)N1CCC1)/C2=CC=CC=N2 + COc1cc2c(Oc3ccc(NC(=O)C4(C(=O)Nc5ccc(F)cc5)CC4)cc3F)ccnc2cc1OCCCN1CCOCC1 [Foretinib] (partner 0.25 µM)
Outline: as §1

[4] = compound: C/C(=N\NC(=S)N1CCC1)/C2=CC=CC=N2 + COc1cccc2cc(-c3nc([C@H]4CC[C@H](C(=O)O)CC4)n4ncnc(N)c34)[nH]c12 [OSI-027] (partner 0.5 µM)
Outline: as §1

| Cell Line | relative viability ([1]; first compound 0.05 µM) | relative viability ([1]; first compound 0.1581 µM) | relative viability ([1]; first compound 0.5 µM) | relative viability ([1]; first compound 1.581 µM) | relative viability ([1]; first compound 5 µM) | relative viability ([2]; first compound 0.05 µM) | relative viability ([2]; first compound 0.1581 µM) | relative viability ([2]; first compound 0.5 µM) | relative viability ([2]; first compound 1.581 µM) | relative viability ([2]; first compound 5 µM) | relative viability ([3]; first compound 0.05 µM) | relative viability ([3]; first compound 0.1581 µM) | relative viability ([3]; first compound 0.5 µM) | relative viability ([3]; first compound 1.581 µM) | relative viability ([3]; first compound 5 µM) | relative viability ([4]; first compound 0.05 µM) | relative viability ([4]; first compound 0.1581 µM) | relative viability ([4]; first compound 0.5 µM) | relative viability ([4]; first compound 1.581 µM) | relative viability ([4]; first compound 5 µM) |
| --- | --- | --- | --- | --- | --- | --- | --- | --- | --- | --- | --- | --- | --- | --- | --- | --- | --- | --- | --- | --- |
| A-427 | 0.191 | 0.209 | 0.195 | 0.151 | 0.188 | 0.188 | 0.173 | 0.159 | 0.156 | 0.178 | 0.146 | 0.185 | 0.172 | 0.122 | 0.124 | 0.172 | 0.154 | 0.135 | 0.165 | 0.125 |
| H3255 | 0.359 | 0.349 | 0.355 | 0.268 | 0.255 | 0.302 | 0.308 | 0.286 | 0.244 | 0.237 | 0.241 | 0.245 | 0.241 | 0.242 | 0.29 | 0.364 | 0.293 | 0.25 | 0.254 | 0.29 |
| NCI-H1734 | 0.17 | 0.166 | 0.188 | 0.152 | 0.135 | 0.124 | 0.128 | 0.139 | 0.0896 | 0.101 | 0.166 | 0.162 | 0.203 | 0.129 | 0.102 | 0.167 | 0.163 | 0.179 | 0.116 | 0.118 |
| NCI-H1993 | 0.382 | 0.487 | 0.436 | 0.405 | 0.375 | 0.302 | 0.372 | 0.387 | 0.373 | 0.317 | 0.542 | 0.516 | 0.567 | 0.631 | 0.526 | 0.519 | 0.542 | 0.516 | 0.541 | 0.545 |
| NCI-H1437 | 0.174 | 0.169 | 0.193 | 0.171 | 0.126 | 0.353 | 0.278 | 0.243 | 0.239 | 0.176 | 0.242 | 0.261 | 0.229 | 0.192 | 0.162 | 0.19 | 0.174 | 0.174 | 0.135 | 0.106 |
| 201T | 0.292 | 0.315 | 0.289 | 0.294 | 0.286 | 0.287 | 0.285 | 0.273 | 0.211 | 0.233 | 0.213 | 0.209 | 0.19 | 0.181 | 0.177 | 0.402 | 0.21 | 0.201 | 0.166 | 0.134 |
| NCI-H358 | 0.114 | 0.107 | 0.109 | 0.0963 | 0.12 | 0.174 | 0.217 | 0.16 | 0.15 | 0.18 | 0.0918 | 0.107 | 0.0747 | 0.0879 | 0.107 | 0.0802 | 0.0946 | 0.0796 | 0.0601 | 0.0821 |
| ChaGo-K-1 | 0.172 | 0.171 | 0.18 | 0.161 | 0.162 | 0.177 | 0.175 | 0.154 | 0.154 | 0.154 | 0.217 | 0.24 | 0.211 | 0.176 | 0.171 | 0.15 | 0.168 | 0.177 | 0.163 | 0.165 |
| LOU-NH91 | 0.392 | 0.439 | 0.421 | 0.403 | 0.366 | 0.46 | 0.548 | 0.479 | 0.294 | 0.428 | 0.519 | 0.447 | 0.507 | 0.469 | 0.375 | 0.412 | 0.476 | 0.447 | 0.388 | 0.396 |
| HOP-62 | 0.0662 | 0.0706 | 0.0806 | 0.128 | 0.0892 | 0.0756 | 0.0789 | 0.0592 | 0.0773 | 0.111 | 0.21 | 0.243 | 0.114 | 0.116 | 0.112 | 0.104 | 0.0907 | 0.101 | 0.111 | 0.102 |
| NCI-H1915 | 0.128 | 0.142 | 0.163 | 0.133 | 0.126 | 0.16 | 0.114 | 0.134 | 0.119 | 0.122 | 0.366 | 0.675 | 0.216 | 0.192 | 0.173 | 0.184 | 0.165 | 0.176 | 0.179 | 0.163 |
| NCI-H3122 | 0.0953 | 0.11 | 0.11 | 0.149 | 0.15 | 0.0944 | 0.0773 | 0.115 | 0.13 | 0.114 | 0.101 | 0.0817 | 0.0973 | 0.149 | 0.158 | 0.138 | 0.0988 | 0.132 | 0.134 | 0.129 |
| NCI-H1651 | 0.137 | 0.111 | 0.0991 | 0.0716 | 0.0806 | 0.0886 | 0.101 | 0.0929 | 0.0496 | 0.0554 | 0.136 | 0.142 | 0.127 | 0.0965 | 0.107 | 0.152 | 0.165 | 0.13 | 0.0837 | 0.093 |
| NCI-H838 | 0.223 | 0.186 | 0.185 | 0.19 | 0.186 | 0.579 | 0.684 | 0.653 | 0.616 | 0.637 | 0.259 | 0.255 | 0.216 | 0.217 | 0.18 | 0.167 | 0.179 | 0.19 | 0.129 | 0.142 |
| NCI-H596 | 0.373 | 0.302 | 0.339 | 0.243 | 0.292 | 0.331 | 0.321 | 0.312 | 0.244 | 0.297 | 0.461 | 0.725 | 0.208 | 0.199 | 0.272 | 0.259 | 0.253 | 0.281 | 0.226 | 0.263 |
| NCI-H441 | 0.16 | 0.162 | 0.129 | 0.154 | 0.118 | 0.264 | 0.178 | 0.173 | 0.144 | 0.153 | 0.314 | 0.236 | 0.238 | 0.174 | 0.167 | 0.181 | 0.173 | 0.16 | 0.143 | 0.168 |
| NCI-H650 | 0.179 | 0.245 | 0.201 | 0.166 | 0.131 | 0.225 | 0.209 | 0.199 | 0.223 | 0.143 | 0.222 | 0.238 | 0.234 | 0.242 | 0.194 | 0.162 | 0.228 | 0.194 | 0.211 | 0.198 |
| NCI-H1355 | 0.195 | 0.18 | 0.177 | 0.189 | 0.152 | 0.168 | 0.17 | 0.135 | 0.146 | 0.155 | 0.282 | 0.378 | 0.22 | 0.197 | 0.162 | 0.201 | 0.213 | 0.208 | 0.18 | 0.178 |
| NCI-H2347 | 0.33 | 0.308 | 0.3 | 0.27 | 0.291 | 0.192 | 0.235 | 0.218 | 0.198 | 0.244 | 0.321 | 0.391 | 0.312 | 0.31 | 0.28 | 0.242 | 0.208 | 0.255 | 0.234 | 0.218 |
| LCLC-97TM1 | 0.0782 | 0.0748 | 0.0673 | 0.068 | 0.0595 | 0.0761 | 0.0694 | 0.0641 | 0.0548 | 0.0577 | 0.511 | 0.752 | 0.193 | 0.12 | 0.155 | 0.111 | 0.175 | 0.185 | 0.138 | 0.158 |
| EMC-BAC-2 | 0.26 | 0.255 | 0.275 | 0.228 | 0.259 | 0.252 | 0.259 | 0.241 | 0.176 | 0.216 | 0.209 | 0.261 | 0.246 | 0.183 | 0.237 | 0.199 | 0.22 | 0.233 | 0.189 | 0.209 |
| NCI-H1975 | 0.133 | 0.144 | 0.141 | 0.155 | 0.145 | 0.308 | 0.239 | 0.225 | 0.234 | 0.24 | 0.137 | 0.143 | 0.129 | 0.124 | 0.124 | 0.137 | 0.119 | 0.116 | 0.105 | 0.11 |
| BEN | 0.256 | 0.318 | 0.262 | 0.279 | 0.311 | 0.265 | 0.339 | 0.288 | 0.238 | 0.279 | 0.17 | 0.204 | 0.175 | 0.171 | 0.205 | 0.206 | 0.142 | 0.166 | 0.183 | 0.202 |
| NCI-H23 | 0.16 | 0.175 | 0.203 | 0.137 | 0.19 | 0.0952 | 0.131 | 0.124 | 0.096 | 0.131 | 0.226 | 0.262 | 0.196 | 0.181 | 0.209 | 0.136 | 0.127 | 0.154 | 0.137 | 0.143 |
| CAL-12T | 0.14 | 0.132 | 0.173 | 0.143 | 0.122 | 0.284 | 0.226 | 0.281 | 0.206 | 0.159 | 0.184 | 0.21 | 0.146 | 0.161 | 0.138 | 0.133 | 0.126 | 0.145 | 0.105 | 0.147 |
| EPLC-272H | 0.165 | 0.179 | 0.149 | 0.0756 | 0.265 | 0.106 | 0.104 | 0.106 | 0.0639 | 0.114 | 0.0785 | 0.069 | 0.1 | 0.0473 | 0.0779 | 0.159 | 0.13 | 0.138 | 0.103 | 0.112 |
